Tests used:
[1] = test system: Human Embryo Kidney (HEK) 293 cells; test: Hypothermia/rewarming injury of HEK cells, trypan blue viability count; type: cell-based; conditions: for viability at 0.01 µM / viability at 0.1 µM / viability at 1 µM / viability at 10 µM / viability at 100 µM / viability at 1000 µM: Homo sapiens, HEK293, 24 h, read-out: % cells that survived; for viability at 0.01 µM / viability at 0.1 µM / viability at 1 µM / viability at 10 µM / viability at 100 µM / viability at 1000 µM / % cells that survived: 24 h at 4° C., 24 h rewarming; for % cells that survived, Mean: mean over the tested concentrations
[2] = test system: blood platelets; test: Cold storage of PRP blood platelets, aggregation of thrombocytes after storage; type: cell-based; design: key: − means that most of the thrombocytes were aggregated; a + indicates that a few cells were still viable but some cells aggregated; a ++ indicates that almost all cells were viable; conditions: 30 mM; PRP platelets stored at 4° C.; 264 hours
Protocol: PRP platelets were harvested and 2.1 ml was suspended in Poly Propylene tubes of 5 ml, closed with a stop.
Several compounds according to the invention were added to the blood platelets directly after preparing the PRP plasma and incubated during 10 minutes at 37° C. or 30 minutes at room temperature. The blood platelets with the compound were then stored at 4° C.
A control was stored under shaking conditions at room temperature. Another control was stored at 4° C. without the addition of a compound.
A sample was taken out of each tube after 264 hours after addition of the compound and tested as follows: • The color and coagulation properties were visually analysed. • The thrombocyte cells that survived were counted and it was evaluated whether the thrombocytes were aggregated. • It was evaluated if the thrombocytes still were able to function after stimulation by the addition of ADP or under influence of collagen in a 96 well plate. • The adhesion was evaluated, meaning the ability of the platelets to bind collagen in a 6 well plate preincubated with collagen. • Via an ELISA assay, it was evaluated whether thromboxane was secreted from the platelets. Thromboxane facilitates aggregation and is produced by activated blood platelets.
Table 3 provides an overview of the results of the addition of the compounds to the blood platelets and evaluates the aggregation of the thrombocytes after addition of the compound according to the invention and cooling until 4° C.

[3] = test system: porcine hearts; test: Cold ischemic tolerance of porcine hearts, reperfusion in PhysioHeart platform; design: species or system pig
Excerpt: This example studies if SUL 109 as additive to standard heart transplantation protocols will help to prolong the maximal cold ischemic protection of porcine hearts. For long term arrest, for example in case of transplantation, a commonly used solution is CUSTODIOL®. With CUSTODIOL® solution it is possible to keep a heart in a cold ischemic state for up to six hours before reperfusion with warm oxygenated blood is necessary.
Two hearts were harvested from slaughterhouse pigs and treated as follows. […] After exsanguinations the sternum was quickly opened and the heart and lungs were removed as a whole. The heart was immediately submersed in an ice cold bath and the aorta was cut proximal to the brachocephalic side branches. A 19 mm cannula was inserted in the aorta and tied off. The carefully de-aired cannulla was used to retrogradely administer cold cardioplegic solution. In the first heart, 2 liters of standard CUSTODIOL® with 5000 IU/1 of heparin added was administered. The second heart was administered 2 liters of CUSTODIOL® with 5000 IU/1 of heparin and 10 ml/l of SUL 109 in 0.9% NaCl at 75 μM. Both hearts were stored in plastic bags filled with the same solutions and transported to the lab on ice at approximately 4° C. Before preparation the hearts were stored at 4° C. for 24 hours. The next day both hearts were prepared to be mounted in the PhysioHeart platform as described in DeHart et al 2011. After de-airing the hearts, retrograde reperfusion of the aorta was started with warm oxygenated blood at 38° C. Both flow of blood and pressure at the aortic root were registered during the experiment.

[4] = at reperfusion after 24 hours at 4° C., vs. non treated heart

| SMILES | viability at 0.01 µM ([1]; 10 nM) | viability at 0.1 µM ([1]; 100 nM) | viability at 1 µM ([1]; 1 μM) | viability at 10 µM ([1]; 10 μM) | viability at 100 µM ([1]; 100 μM) | viability at 1000 µM ([1]; 1 mM) | % cells that survived, Mean [1] | Aggregation of blood platelets after storage [2] | % cells that survived ([1]; 10 nM) | % cells that survived ([1]; 100 nM) | % cells that survived ([1]; 1 μM) | % cells that survived ([1]; 10 μM) | % cells that survived ([1]; 100 μM) | % cells that survived ([1]; 1 mM) | contraction after defibrillation shocks ([3]; at reperfusion after 24 hours at 4° C.) | contractile activity [3, 4] | vascular resistance [3, 4] | coronary flow ([3]; perfusion pressure of 80 mmHg, reperfusion after 24 hours at 4° C.) | contractive activity of the myocardial tissue ([3]; treated vs. non-treated heart) |
| --- | --- | --- | --- | --- | --- | --- | --- | --- | --- | --- | --- | --- | --- | --- | --- | --- | --- | --- | --- |
| Cc1c(C)c2c(c(C)c1O)CC[C@](C)(C(=O)NO)O2 [SUL - 125, (R)-N,6-dihydroxy-2,5,7,8-tetramethylchroman-2-carboxamide] | 8.09% | 0% | 97.3% | 96.7% | 88.4% | 22.5% | 52% | + | – | – | – | – | – | – | – | – | – | – | – |
| Cc1c(C)c2c(c(C)c1O)CCC(C)(C(=O)N[C@H](C)CO)O2 (stereo partly drawn) [SUL - 120, 6-hydroxy-N-((R)-1-hydroxypropan-2-yl)-2,5,7,8-tetramethylchroman-2-carboxamide] | 17.6% | 65.3% | 95.5% | 91.6% | 88.7% | 81.5% | 73% | + | – | – | – | – | – | – | – | – | – | – | – |
| Cc1c2c(c(C(C)C)c(O)c1C(C)C)CCC(C)(C(=O)N1CCN(CC(=O)O)CC1)O2 (stereo not shown) [SUL - 139, 2-(4-(6-hydroxy-5,7-diisopropyl-2,8-dimethylchroman-2-carbonyl)piperazin-1-yl)acetic acid] | 13.3% | 4.57% | 4.26% | 90% | 89.7% | 80.3% | 47% | + | – | – | – | – | – | – | – | – | – | – | – |
| Cc1c(C)c2c(c(C)c1O)CC[C@@](C)(C(=O)N1CCN(CC(=O)O)CC1)O2 [SUL - 141, (S)-2-(4-(6-hydroxy-2,5,7,8-tetramethylchroman-2-carbonyl)piperazin-1-yl)acetic acid] | 58.5% | 96.2% | 0.75% | 99.4% | 96.8% | 99.1% | 75% | + | – | – | – | – | – | – | – | – | – | – | – |
| Cc1c(C)c2c(c(C)c1O)CCC(C)(C(=O)N1CCN(CCO)CC1)O2 (stereo not shown) [SUL - 138, (6-hydroxy-2,5,7,8-tetramethylchroman-2-yl)(4-(2-hydroxyethyl)piperazin-1-yl)methanone] | – | – | – | – | – | – | 89% | + | 92.84% | 91.74% | 77.01% | 91.71% | 93.30% | 86.94% | – | – | – | – | – |
| Cc1c(C)c2c(c(C)c1O)CC[C@@](C)(C(=O)NO)O2 [SUL - 126, (S)-N,6-dihydroxy-2,5,7,8-tetramethylchroman-2-carboxamide] | 0% | 0% | 68.1% | 92.7% | 98.6% | 80.2% | 57% | + | – | – | – | – | – | – | – | – | – | – | – |
| Cc1c(C)c2c(c(C)c1O)CCC(C)(C(=O)N1CCN(CCO)CC1)O2 (stereo not shown) [SUL - 109, (6-hydroxy-2,5,7,8-tetramethylchroman-2-yl)(4-(2-hydroxyethyl)piperazin-1-yl)methanone] | 92.6% | 98% | 97% | 94.9% | 93.7% | 87.4% | 94% | – | – | – | – | – | – | – | weak contractive unpaced pattern | more contractile activity compared to the non treated one | lower vascular resistance | 1 lpm | improved regular contractive activity |
| Cc1c(C)c2c(c(C)c1O)CCC(C)(C(=O)N1CCC[C@H]1C(=O)O)O2 (mixture of isomers) [SUL - 143, (2S)-1-(6-hydroxy-2,5,7,8-tetramethylchroman-2-carbonyl)pyrrolidine-2-carboxylic acid] | 30.6% | 35% | 14.9% | 49.5% | 97.8% | 98.4% | 54% | + | – | – | – | – | – | – | – | – | – | – | – |
| Cc1c(C)c2c(c(C)c1O)CC[C@](C)(C(=O)N1CCN(CC(=O)O)CC1)O2 [SUL - 142, (R)-2-(4-(6-hydroxy-2,5,7,8-tetramethylchroman-2-carbonyl)piperazin-1-yl)acetic acid] | 0% | 73% | 98.5% | 99.2% | 99.4% | 91.9% | 77% | ++ | – | – | – | – | – | – | – | – | – | – | – |
| Cc1c2c(c(C(C)C)c(O)c1C(C)C)CCC(C)(C(=O)O)O2 (stereo not shown) [SUL - 118, 6-hydroxy-5,7-diisopropyl-2,8-dimethylchroman-2-carboxylic acid] | 13.7% | 45.7% | 36.2% | 52.9% | 88.5% | 92.5% | 55% | + | – | – | – | – | – | – | – | – | – | – | – |
| CCCCNCC1(C)CCc2c(C)c(O)c(C)c(C)c2O1 (stereo not shown) [SUL - 117, 2-((butylamino)methyl)-2,5,7,8-tetramethylchroman-6-ol] | 0.72% | 89.3% | 93.6% | 84.8% | 90.1% | 0% | 60% | + | – | – | – | – | – | – | – | – | – | – | – |
| Cc1c(C)c2c(c(C)c1O)CCC(C)(C(=O)N1CCC[C@H]1C(=O)O)O2 (single isomer, unassigned) [SUL - 145] | – | – | – | – | – | – | 40% | + | 12.99% | 28.68% | 21.43% | 7.84% | 78.61% | 88.08% | – | – | – | – | – |
